Data taken from ChEMBL document CHEMBL3232950, “Quinolone-benzylpiperidine derivatives as novel acetylcholinesterase inhibitor and antioxidant hybrids for Alzheimer disease” (Bioorg Med Chem, 2014).

Assays:
Cholinesterase = Cholinesterase (Equus caballus, UniProt P81908)
Description: Inhibition of BuChE in equine serum using butyrylthiocholine iodide as substrate preincubated with enzyme for 10 mins prior to substrate challenge measured after 15 mins by Ellman's method

Acetylcholinesterase [1] = molecular target: Acetylcholinesterase (Electrophorus electricus, UniProt O42275)
Description: Inhibition of electric eel AChE using acetylthiocholine iodide as substrate preincubated with enzyme for 10 mins prior to substrate challenge measured after 15 mins by Ellman's method

[2] = system: Radical scavenging activity
Description: Antioxidant activity assessed as DPPH radical scavenging activity after 2 hrs by absorbance analysis

[3] = Antioxidant activity assessed as superoxide anion radical scavenging activity at 100 uM by non-enzymatic phenazine methosulfate NADH-system; type: functional
Acetylcholinesterase [4] = molecular target: Acetylcholinesterase (Homo sapiens, UniProt P22303); assay: Inhibition of AChE in human erythrocytes using acetylthiocholine iodide as substrate preincubated with enzyme for 10 mins prior to substrate challenge measured after 15 mins by Ellman's method; type: cell-based
Chain of Acetylcholinesterase (Homo sapiens, UniProt P22303) (P22303 whole entry): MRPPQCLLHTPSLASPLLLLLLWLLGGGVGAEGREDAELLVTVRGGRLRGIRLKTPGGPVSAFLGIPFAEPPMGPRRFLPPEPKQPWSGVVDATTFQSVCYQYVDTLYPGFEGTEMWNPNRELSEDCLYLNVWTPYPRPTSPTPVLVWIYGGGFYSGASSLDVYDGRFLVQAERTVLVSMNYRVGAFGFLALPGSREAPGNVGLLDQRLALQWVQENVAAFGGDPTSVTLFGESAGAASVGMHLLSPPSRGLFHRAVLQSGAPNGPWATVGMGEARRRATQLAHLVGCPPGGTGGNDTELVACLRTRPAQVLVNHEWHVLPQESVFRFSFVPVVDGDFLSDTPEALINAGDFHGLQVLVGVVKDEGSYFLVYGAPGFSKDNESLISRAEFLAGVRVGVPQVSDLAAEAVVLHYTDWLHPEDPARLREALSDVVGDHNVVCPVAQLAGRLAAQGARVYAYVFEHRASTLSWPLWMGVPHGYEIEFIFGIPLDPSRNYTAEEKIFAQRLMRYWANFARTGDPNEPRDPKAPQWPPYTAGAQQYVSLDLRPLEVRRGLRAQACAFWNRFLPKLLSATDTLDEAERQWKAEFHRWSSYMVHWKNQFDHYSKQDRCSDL

Chain of Cholinesterase (P81908 whole entry): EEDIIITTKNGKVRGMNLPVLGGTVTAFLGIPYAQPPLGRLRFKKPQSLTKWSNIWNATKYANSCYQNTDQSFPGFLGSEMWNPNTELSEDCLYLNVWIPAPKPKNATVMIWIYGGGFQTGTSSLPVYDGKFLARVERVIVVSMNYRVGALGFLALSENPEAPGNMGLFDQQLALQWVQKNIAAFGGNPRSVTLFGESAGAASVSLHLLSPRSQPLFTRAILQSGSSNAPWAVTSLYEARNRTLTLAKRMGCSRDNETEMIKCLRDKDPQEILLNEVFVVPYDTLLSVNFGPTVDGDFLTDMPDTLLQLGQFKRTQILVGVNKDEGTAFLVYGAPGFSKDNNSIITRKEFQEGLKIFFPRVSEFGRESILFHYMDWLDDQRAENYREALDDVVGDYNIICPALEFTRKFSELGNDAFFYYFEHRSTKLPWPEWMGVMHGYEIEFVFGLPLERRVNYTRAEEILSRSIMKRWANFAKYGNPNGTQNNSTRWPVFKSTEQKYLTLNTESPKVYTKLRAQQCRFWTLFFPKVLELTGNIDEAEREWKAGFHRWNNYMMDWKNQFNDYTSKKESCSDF
Chain of Acetylcholinesterase (Electrophorus electricus, UniProt O42275) (O42275 whole entry): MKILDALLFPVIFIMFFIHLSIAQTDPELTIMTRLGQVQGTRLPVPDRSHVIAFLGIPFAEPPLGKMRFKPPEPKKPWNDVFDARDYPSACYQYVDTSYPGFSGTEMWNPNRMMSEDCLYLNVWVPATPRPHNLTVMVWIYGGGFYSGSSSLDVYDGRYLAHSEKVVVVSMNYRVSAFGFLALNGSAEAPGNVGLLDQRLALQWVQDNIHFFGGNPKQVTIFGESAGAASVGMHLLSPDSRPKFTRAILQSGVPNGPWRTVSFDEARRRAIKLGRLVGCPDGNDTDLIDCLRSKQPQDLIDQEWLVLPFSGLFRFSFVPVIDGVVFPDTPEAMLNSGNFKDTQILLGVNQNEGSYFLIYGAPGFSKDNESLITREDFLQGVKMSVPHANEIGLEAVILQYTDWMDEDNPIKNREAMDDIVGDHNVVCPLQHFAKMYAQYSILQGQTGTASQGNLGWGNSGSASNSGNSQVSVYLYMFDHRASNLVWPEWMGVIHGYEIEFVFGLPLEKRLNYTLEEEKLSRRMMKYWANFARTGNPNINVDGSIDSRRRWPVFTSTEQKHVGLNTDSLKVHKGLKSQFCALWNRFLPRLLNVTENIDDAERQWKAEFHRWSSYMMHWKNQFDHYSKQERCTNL

Compound | IC50 (Cholinesterase) [nM] | IC50 (Acetylcholinesterase [1]) [nM] | EC50 [2] [nM] | Activity [3] [%] | IC50 (Acetylcholinesterase [4]) [nM]
O=C(NCC1CCN(Cc2ccccc2)CC1)c1c(O)c2ccccc2n(Cc2ccccc2)c1=O | > 10000 | 490 | – | – | –
O=C(NCC1CCN(Cc2ccccc2)CC1)c1c(O)c2ccccc2[nH]c1=O | 6020 | 1410 | – | – | –
COc1cc2c(O)c(C(=O)NCC3CCN(Cc4ccccc4)CC3)c(=O)n(Cc3ccccc3)c2cc1OC | > 60000 | 270 | – | – | –
O=C(NC1CCN(Cc2ccccc2)CC1)c1c(-c2ccccc2)c2ccccc2[nH]c1=O | > 10000 | > 10000 | – | – | –
O=C(NCC1CCN(Cc2ccccc2)CC1)c1c(O)c2cc(O)c(O)cc2n(Cc2ccccc2)c1=O | > 10000 | > 10000 | 20800 | – | –
COc1cc(Cn2c(=O)c(C(=O)NCC3CCN(Cc4ccccc4)CC3)c(O)c3ccccc32)cc(OC)c1O | 330 | 560 | 90500 | 33 | –
Cn1c(=O)c(C(=O)NCC2CCN(Cc3ccccc3)CC2)c(O)c2cc(O)c(O)cc21 | > 10000 | 2020 | 21700 | 40 | –
Cn1c(=O)c(C(=O)NCC2CCN(Cc3ccccc3)CC2)c(N)c2ccccc21 | 1140 | 380 | – | – | –
O=c1c(O)c(-c2ccc(O)c(O)c2)oc2cc(O)cc(O)c12 [QUERCETIN] | – | – | 10300 | – | –
Cn1c(=O)c(C(=O)NC2CCN(Cc3ccccc3)CC2)c(O)c2ccccc21 | > 10000 | 1520 | – | – | –
Cn1c(=O)c(C(=O)NCC2CCN(Cc3ccccc3)CC2)c(O)c2ccccc21 | 4260 | 370 | – | – | –
COc1cc2[nH]c(=O)c(C(=O)NCC3CCN(Cc4ccccc4)CC3)c(O)c2cc1OC | > 60000 | 110 | – | – | 230
O=C(NCC1CCN(Cc2ccccc2)CC1)c1c(O)c2cc(O)c(O)cc2[nH]c1=O | > 10000 | 480 | 12200 | – | 980
O=C(NC1CCN(Cc2ccccc2)CC1)c1c(O)c2ccccc2[nH]c1=O | > 10000 | 2270 | – | – | –
O=C(NCC1CCN(Cc2ccccc2)CC1)c1c(O)c2ccccc2n(Cc2cc(O)c(O)c(O)c2)c1=O | > 10000 | 3890 | 107000 | – | –
Cc1c(C(=O)NCC2CCN(Cc3ccccc3)CC2)c(=O)[nH]c2ccccc12 | > 10000 | 470 | – | – | –
O=C(NC1CCN(Cc2ccccc2)CC1)c1c(O)c2ccccc2n(Cc2ccccc2)c1=O | > 10000 | 390 | – | – | –
Cc1c(C(=O)NC2CCN(Cc3ccccc3)CC2)c(=O)[nH]c2ccccc12 | > 10000 | 2460 | – | – | –
COc1cc(/C=C/C(=O)CC(=O)/C=C/c2ccc(O)c(OC)c2)ccc1O [CURCUMIN] | – | – | 26600 | – | –
COc1cc2c(O)c(C(=O)NCC3CCN(Cc4ccccc4)CC3)c(=O)n(C)c2cc1OC | > 10000 | 2930 | – | – | –
